Tested on: human peripheral blood mononuclear cells
Assay: TNFα release from LPS-stimulated human peripheral blood mononuclear cells (TNFα screen)
Assay type: cell-based
Conditions: PBMC, 18 hours incubation, TNFα in supernatant by ELISA
Method: Venous blood is collected from healthy volunteers and the mononuclear cells purified by centrifugation through Histopaque (Ficoll) cushions. TNFα production from these cells is stimulated by addition of lipopolysaccharide. After 18 hours incubation in the presence of LPS, the cell supernatant is removed and the concentration of TNFα in the supernatant determined by ELISA. Addition of PDE4 inhibitors reduces the amount of TNFα produced. An IC50 is determined which is equal to the concentration of compound that gives 50% inhibition of TNFα production as compared to the LPS stimulated control wells.

| Structure (SMILES) | IC50 [nM] |
| --- | --- |
| O=C(N[C@H]1CC[C@@H](NC(=O)c2cccn3ccnc23)CC1)c1cc(F)cnc1Oc1ccc2c(c1)SCC2 [Example 1, Syn-imidazo[1,2-a]pyridine-8-carboxylic acid (4-{[2-(2,3-dihydro-benzo[b]thiophen-6-yloxy)-5-fluoro-pyridine-3-carbonyl]-amino}-cyclohexyl)-amide] | 0.6 |
| Cc1ccc(C(=O)N[C@H]2CC[C@@H](NC(=O)c3cc(F)cnc3Oc3ccc4c(c3)SCC4)CC2)c(O)c1 [Example 3, Syn-2-(2,3-dihydro-benzo[b]thiophen-6-yloxy)-5-fluoro-N-[4-(2-hydroxy-4-methyl-benzoylamino)-cyclohexyl]-nicotinamide] | 0.8 |

— patent US7132435B2, “Compounds” (Pfizer Inc., priority 2003, dated 2006)
